Results on three compounds are retold here after patent US20190184364A1, “FRAGRANCE COMPOSITIONS CONTAINING MICROCAPSULES” (INTERNATIONAL FLAVORS & FRAGRANCES INC., priority 2016, published 2019).

One series concerns insect bites. Particulars: DEET at 100%; cited from earlier work.
A short description of series [1]: Water solubility of core solvents. The series is classed as physicochemical.
The conditions of series [2]: cited from earlier work; for δD: Hansen dispersion value; for δH: Hansen h-bonding value; for δP: Hansen polar value.

Values after ≈ are worked out from the molar mass of the structure shown.

Turning to `CCN(CC)C(=O)c1cccc(C)c1` [DEET, N,N-Diethyl-meta-toluamide], the “hours of protection against insect bites” value with insect bites is “up to 12 hours”.

By solubility is commonly meant the dissolved amount per volume that the medium holds. A high value points to a readily soluble substance. The compound `CCCCCCCCCCCCCC(=O)OC(C)C` [isopropyl myristate] displayed a solubility in series [1] below 0.0001 mg/mL. Further, in series [2], the δD is given as 16, the δH is on record as 2.7 and the δP is listed as 2.1.

For the compound `CC(=O)OCC(COC(C)=O)OC(C)=O` [triacetin], in series [1], the solubility is 21.5 mg/mL (≈ 98.6 mM). In series [2], the δD was 16.4, the δH is 9.6 and the δP is 5.7.
